Measurements taken from PubChem BioAssay AID1259407 (Chemical Carcinogenesis Research Information System (CCRIS), 2018).
Active and inactive are the calls of the source. How the calls were made is not given here.

Tested on: CCRIS mutagenicity, Ames/micronucleus/aberration tests
Assay: CCRIS mutagenicity studies
[1] = Test System: AMES SALMONELLA TYPHIMURIUM, Strain/Indicator: TA98, Metabolic Activation: HAMSTER, LIVER, S-9, AROCLOR 1254 (10%), Method: PREINCUBATION
[2] = Test System: AMES SALMONELLA TYPHIMURIUM, Strain/Indicator: TA98, Metabolic Activation: NONE, Method: PREINCUBATION
[3] = Test System: AMES SALMONELLA TYPHIMURIUM, Strain/Indicator: TA98, Metabolic Activation: RAT, LIVER, S-9, AROCLOR 1254 (10%), Method: PREINCUBATION
[4] = Test System: AMES SALMONELLA TYPHIMURIUM, Strain/Indicator: TA100, Metabolic Activation: HAMSTER, LIVER, S-9, AROCLOR 1254 (10%), Method: PREINCUBATION
[5] = Test System: AMES SALMONELLA TYPHIMURIUM, Strain/Indicator: TA100, Metabolic Activation: NONE, Method: PREINCUBATION
[6] = Test System: AMES SALMONELLA TYPHIMURIUM, Strain/Indicator: TA100, Metabolic Activation: RAT, LIVER, S-9, AROCLOR 1254 (10%), Method: PREINCUBATION
[7] = Test System: AMES SALMONELLA TYPHIMURIUM, Strain/Indicator: TA1535, Metabolic Activation: HAMSTER, LIVER, S-9, AROCLOR 1254 (10%), Method: PREINCUBATION
[8] = Test System: AMES SALMONELLA TYPHIMURIUM, Strain/Indicator: TA1535, Metabolic Activation: NONE, Method: PREINCUBATION
[9] = Test System: AMES SALMONELLA TYPHIMURIUM, Strain/Indicator: TA1535, Metabolic Activation: RAT, LIVER, S-9, AROCLOR 1254 (10%), Method: PREINCUBATION
[10] = Test System: AMES SALMONELLA TYPHIMURIUM, Strain/Indicator: TA1537, Metabolic Activation: NONE, Method: PREINCUBATION

Compound: CCCCC(CC)CO (centres undefined)
- mutagenic call [1]: inactive; negative
- mutagenic call [2]: inactive; negative
- mutagenic call (Test System: AMES SALMONELLA TYPHIMURIUM, Strain/Indicator: TA98, Metabolic Activation: RAT LIVER S-9, PHENOBARBITAL AND BETA-NAPHTHOFLAVONE, Method: PREINCUBATION): inactive; negative
- mutagenic call [3]: inactive; negative
- mutagenic call (Test System: AMES SALMONELLA TYPHIMURIUM, Strain/Indicator: TA98, Metabolic Activation: RAT, LIVER, S-9, KC 500, Method: PREINCUBATION): inactive; negative
- mutagenic call [4]: inactive; negative
- mutagenic call [5]: inactive; negative
- mutagenic call (Test System: AMES SALMONELLA TYPHIMURIUM, Strain/Indicator: TA100, Metabolic Activation: RAT LIVER S-9, PHENOBARBITAL AND BETA-NAPHTHOFLAVONE, Method: PREINCUBATION): inactive; negative
- mutagenic call [6]: inactive; negative
- mutagenic call (Test System: AMES SALMONELLA TYPHIMURIUM, Strain/Indicator: TA100, Metabolic Activation: RAT, LIVER, S-9, KC 500, Method: PREINCUBATION): inactive; negative
- mutagenic call [7]: inactive; negative
- mutagenic call [8]: inactive; negative
- mutagenic call (Test System: AMES SALMONELLA TYPHIMURIUM, Strain/Indicator: TA1535, Metabolic Activation: RAT LIVER S-9, PHENOBARBITAL AND BETA-NAPHTHOFLAVONE, Method: PREINCUBATION): inactive; negative
- mutagenic call [9]: inactive; negative
- mutagenic call (Test System: AMES SALMONELLA TYPHIMURIUM, Strain/Indicator: TA1535, Metabolic Activation: RAT, LIVER, S-9, KC 500, Method: PREINCUBATION): inactive; negative
- mutagenic call (Test System: AMES SALMONELLA TYPHIMURIUM, Strain/Indicator: TA1537, Metabolic Activation: HAMSTER, LIVER, S-9, AROCLOR 1254 (10%), Method: PREINCUBATION): inactive; negative
- mutagenic call [10]: inactive; negative
- mutagenic call (Test System: AMES SALMONELLA TYPHIMURIUM, Strain/Indicator: TA1537, Metabolic Activation: RAT LIVER S-9, PHENOBARBITAL AND BETA-NAPHTHOFLAVONE, Method: PREINCUBATION): inactive; negative
- mutagenic call (Test System: AMES SALMONELLA TYPHIMURIUM, Strain/Indicator: TA1537, Metabolic Activation: RAT, LIVER, S-9, AROCLOR 1254 (10%), Method: PREINCUBATION): inactive; negative
- mutagenic call (Test System: AMES SALMONELLA TYPHIMURIUM, Strain/Indicator: TA1537, Metabolic Activation: RAT, LIVER, S-9, KC 500, Method: PREINCUBATION): inactive; negative
- mutagenic call (Test System: AMES SALMONELLA TYPHIMURIUM, Strain/Indicator: TA1538, Metabolic Activation: NONE, Method: PREINCUBATION): inactive; negative
- mutagenic call (Test System: AMES SALMONELLA TYPHIMURIUM, Strain/Indicator: TA1538, Metabolic Activation: RAT, LIVER, S-9, KC 500, Method: PREINCUBATION): inactive; negative
- mutagenic call (Test System: E. COLI, Strain/Indicator: WP2 UVRA, Metabolic Activation: NONE, Method: PREINCUBATION): inactive; negative
- mutagenic call (Test System: E. COLI, Strain/Indicator: WP2UVRA, Metabolic Activation: NONE, Method: PREINCUBATION): inactive; negative
- mutagenic call (Test System: E. COLI, Strain/Indicator: WP2UVRA, Metabolic Activation: RAT LIVER S-9, PHENOBARBITAL AND BETA-NAPHTHOFLAVONE, Method: PREINCUBATION): inactive; negative
- mutagenic call (Test System: E. COLI, Strain/Indicator: WP2 UVRA, Metabolic Activation: RAT, LIVER, S-9, KC 500, Method: PREINCUBATION): inactive; negative

Compound: CCCCCCC(=O)O
- mutagenic call (Test System: AMES SALMONELLA TYPHIMURIUM, Strain/Indicator: TA97, Metabolic Activation: HAMSTER, LIVER, S-9, AROCLOR 1254 (10%), Method: PREINCUBATION): inactive; negative
- mutagenic call (Test System: AMES SALMONELLA TYPHIMURIUM, Strain/Indicator: TA97, Metabolic Activation: HAMSTER, LIVER, S-9, AROCLOR 1254 (30%), Method: PREINCUBATION): inactive; negative
- mutagenic call (Test System: AMES SALMONELLA TYPHIMURIUM, Strain/Indicator: TA97, Metabolic Activation: NONE, Method: PREINCUBATION): inactive; negative
- mutagenic call (Test System: AMES SALMONELLA TYPHIMURIUM, Strain/Indicator: TA97, Metabolic Activation: RAT, LIVER, S-9, AROCLOR 1254 (10%), Method: PREINCUBATION): inactive; negative
- mutagenic call (Test System: AMES SALMONELLA TYPHIMURIUM, Strain/Indicator: TA97, Metabolic Activation: RAT, LIVER, S-9, AROCLOR 1254 (30%), Method: PREINCUBATION): inactive; negative
- mutagenic call [1]: inactive; negative
- mutagenic call (Test System: AMES SALMONELLA TYPHIMURIUM, Strain/Indicator: TA98, Metabolic Activation: HAMSTER, LIVER, S-9, AROCLOR 1254 (30%), Method: PREINCUBATION): inactive; negative
- mutagenic call [2]: inactive; negative
- mutagenic call [3]: inactive; negative
- mutagenic call (Test System: AMES SALMONELLA TYPHIMURIUM, Strain/Indicator: TA98, Metabolic Activation: RAT, LIVER, S-9, AROCLOR 1254 (30%), Method: PREINCUBATION): inactive; negative
- mutagenic call [4]: inactive; negative
- mutagenic call (Test System: AMES SALMONELLA TYPHIMURIUM, Strain/Indicator: TA100, Metabolic Activation: HAMSTER, LIVER, S-9, AROCLOR 1254 (30%), Method: PREINCUBATION): inactive; negative
- mutagenic call [5]: inactive; negative
- mutagenic call [6]: inactive; negative
- mutagenic call (Test System: AMES SALMONELLA TYPHIMURIUM, Strain/Indicator: TA100, Metabolic Activation: RAT, LIVER, S-9, AROCLOR 1254 (30%), Method: PREINCUBATION): inactive; negative
- mutagenic call [7]: inactive; negative
- mutagenic call (Test System: AMES SALMONELLA TYPHIMURIUM, Strain/Indicator: TA1535, Metabolic Activation: HAMSTER, LIVER, S-9, AROCLOR 1254 (30%), Method: PREINCUBATION): inactive; negative
- mutagenic call [8]: inactive; negative
- mutagenic call [9]: inactive; negative
- mutagenic call (Test System: AMES SALMONELLA TYPHIMURIUM, Strain/Indicator: TA1535, Metabolic Activation: RAT, LIVER, S-9, AROCLOR 1254 (30%), Method: PREINCUBATION): inactive; negative
- mutagenic call (Test System: AMES SALMONELLA TYPHIMURIUM, Strain/Indicator: TA1537, Metabolic Activation: HAMSTER, LIVER, S-9, AROCLOR 1254 (30%), Method: PREINCUBATION): inactive; negative
- mutagenic call [10]: inactive; negative
- mutagenic call (Test System: AMES SALMONELLA TYPHIMURIUM, Strain/Indicator: TA1537, Metabolic Activation: RAT, LIVER, S-9, AROCLOR 1254 (30%), Method: PREINCUBATION): inactive; negative

Compound: ONc1ncnc2nc[nH]c12
- mutagenic call (Test System: AMES SALMONELLA TYPHIMURIUM, Strain/Indicator: HISG46, Metabolic Activation: NONE, Method: STANDARD PLATE): active; positive
- mutagenic call (Test System: AMES SALMONELLA TYPHIMURIUM, Strain/Indicator: TA97, Metabolic Activation: NONE, Method: STANDARD PLATE): active; positive
- mutagenic call (Test System: AMES SALMONELLA TYPHIMURIUM, Strain/Indicator: TA97, Metabolic Activation: RAT, LIVER, S-9, AROCLOR 1254, Method: STANDARD PLATE): inactive; negative
- mutagenic call (Test System: AMES SALMONELLA TYPHIMURIUM, Strain/Indicator: TA98, Metabolic Activation: NONE, Method: STANDARD PLATE): inactive; negative
- mutagenic call (Test System: AMES SALMONELLA TYPHIMURIUM, Strain/Indicator: TA100(TN5-1,8-DNP1011), Metabolic Activation: NONE, Method: STANDARD PLATE): active; positive
- mutagenic call (Test System: AMES SALMONELLA TYPHIMURIUM, Strain/Indicator: TA100(TN5-1,8-DNP1012), Metabolic Activation: NONE, Method: STANDARD PLATE): active; positive
- mutagenic call (Test System: AMES SALMONELLA TYPHIMURIUM, Strain/Indicator: TA100, Metabolic Activation: RAT, LIVER, S-9, AROCLOR 1254, Method: STANDARD PLATE): inactive; negative
- mutagenic call (Test System: AMES SALMONELLA TYPHIMURIUM, Strain/Indicator: TA1950, Metabolic Activation: NONE, Method: STANDARD PLATE): active; positive
- mutagenic call (Test System: E.COLI, Strain/Indicator: CM871, Metabolic Activation: NONE, Method: STANDARD PLATE): active; positive
- mutagenic call (Test System: E.COLI, Strain/Indicator: WP2, Metabolic Activation: NONE, Method: STANDARD PLATE): active; positive
